Results taken from patent US8460669B2, “Compositions and methods for identifying response targets and treating flavivirus infection responses” (Academia Sinica, priority 2005, dated 2013).

Experiments:
Dectin-1.Fc = biological target: T1, Dectin-1.Fc (Homo sapiens, UniProt Q9BXN2); test: Immunosorbent dot binding assay with Dectin-1.Fc
T1 construct: The extracellular domains of lectin receptors, TREMs and TLTs were cloned by the reverse-transcriptase polymerase chain reaction (RT-PCR); made in house; host or cells: 293-F (FreeStyle 293) cells
T1 sequence (Q9BXN2 66-247 limits assumed): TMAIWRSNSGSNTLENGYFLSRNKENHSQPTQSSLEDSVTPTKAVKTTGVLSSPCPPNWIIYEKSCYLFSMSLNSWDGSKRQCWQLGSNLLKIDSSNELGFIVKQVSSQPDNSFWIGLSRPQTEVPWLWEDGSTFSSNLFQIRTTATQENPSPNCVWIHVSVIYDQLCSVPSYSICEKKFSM

DC-SIGNR.Fc = biological target: T2, DC-SIGNR.Fc (Homo sapiens, UniProt Q9H2X3); test: Immunosorbent dot binding assay with DC-SIGNR.Fc; conditions: polysaccharide immobilized on PVDF membrane; receptor.Fc 1 μg/mL
T2 construct: The extracellular domains of lectin receptors, TREMs and TLTs were cloned by the reverse-transcriptase polymerase chain reaction (RT-PCR); made in house; host or cells: 293-F (FreeStyle 293) cells
T2 sequence (Q9H2X3 71-399): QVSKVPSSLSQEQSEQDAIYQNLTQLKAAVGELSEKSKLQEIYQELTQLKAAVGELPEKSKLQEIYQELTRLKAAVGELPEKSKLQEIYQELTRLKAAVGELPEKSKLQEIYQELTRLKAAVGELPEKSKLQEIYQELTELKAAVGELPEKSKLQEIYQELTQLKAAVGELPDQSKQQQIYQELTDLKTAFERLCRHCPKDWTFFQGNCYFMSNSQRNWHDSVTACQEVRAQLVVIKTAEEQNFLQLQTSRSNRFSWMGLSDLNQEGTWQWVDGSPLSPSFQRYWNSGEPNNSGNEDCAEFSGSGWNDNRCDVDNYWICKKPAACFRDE

DC-SIGN = biological target: T3, DC-SIGN (Homo sapiens, UniProt Q9NNX6); test: Sugar competition EIA, Fc.DC-SIGN binding to GLPS-F3; conditions: sugar 1 mg/ml
T3 construct: The extracellular domains of lectin receptors, TREMs and TLTs were cloned by the reverse-transcriptase polymerase chain reaction (RT-PCR); made in house; host or cells: 293-F (FreeStyle 293) cells
T3 sequence (Q9NNX6 59-404 limits assumed): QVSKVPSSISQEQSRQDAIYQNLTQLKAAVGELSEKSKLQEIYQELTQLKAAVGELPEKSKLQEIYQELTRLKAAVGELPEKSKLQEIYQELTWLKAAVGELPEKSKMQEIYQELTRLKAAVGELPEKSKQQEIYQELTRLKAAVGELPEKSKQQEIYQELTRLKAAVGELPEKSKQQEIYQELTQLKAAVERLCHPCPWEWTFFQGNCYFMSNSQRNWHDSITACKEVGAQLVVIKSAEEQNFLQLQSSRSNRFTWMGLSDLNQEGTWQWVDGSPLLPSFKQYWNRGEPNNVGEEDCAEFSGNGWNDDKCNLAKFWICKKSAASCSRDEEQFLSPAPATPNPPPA

DVLR1/CLEC5A = biological target: T4, DVLR1/CLEC5A (Homo sapiens, UniProt Q9NY25); test: Sugar competition, biotinylated DV binding to DVLR1/CLEC5A-transfected 293T cells; type: cell-based; conditions: flow cytometry
T4 construct: expressed in transfected cells; host or cells: 293T cells
T4 sequence (Q9NY25 1-187 isoform Q9NY25-2): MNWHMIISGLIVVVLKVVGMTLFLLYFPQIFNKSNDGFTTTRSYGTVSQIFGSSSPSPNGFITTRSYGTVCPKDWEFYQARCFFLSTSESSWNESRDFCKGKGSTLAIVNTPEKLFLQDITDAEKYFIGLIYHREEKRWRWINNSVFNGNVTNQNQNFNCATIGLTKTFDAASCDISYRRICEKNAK
Procedure: In FIG. 16b, complexes of DV (5×10^6 PFU) with receptor.Fc (5 μg) were immunoprecipitated and detected on westerns with mAb to DV envelope (E) protein. […] FIGS. 16d and 16e show sugar competition assays wherein both DC-SIGN (CLEC4L) and DVLR1/CLEC5A increase DV binding to human 293T cells (FIG. 16d), while addition of sugars inhibits biotinylated DV binding to DC-SIGN- (left panel) or DLVR1/CLEC5A- (right panel) transfected 293T cells in a dose-dependent manner as determined by flow cytometry (FIG. 16e). According to FIG. 16e, MFI represents mean fluorescence intensity. Units (U) for monosaccharide (mannose and fucose) and polysaccharide (mannan) are mM and mg/ml, respectively. […] Data are expressed as the mean±s.d. of three independent experiments. Two-tailed, Student's t-tests were performed.
There are two conserved N-linked glycosylation sites at Asn-67 and Asn-153 of E protein (Pokidysheva, E. et al., Cell 124:485-93 (2006)), and the attached glycans (with terminal fucose and mannose) have been implicated in cellular attachment and viral entry (Modis, Y. et al., J. Virol. 79:1223-1231 (2005)). To investigate the participation of glycans in the association of DVLR1/CLEC5A with DV, virions were incubated with fucose, mannose, or mannan; where the last two sugars are the ligands for DC-SIGN (Mitchell et al., J. Biol. Chem. 276: 28939-28945 ([…])).

inhibition of the interaction between Dectin-1.Fc and F3 (Dectin-1.Fc; competitor 0.1 μg-1000 μg, or EDTA 10 mM in TBST)	interaction with Dectin-1.Fc in dot-binding assay (Dectin-1.Fc; polysaccharide immobilized on PVDF membrane, receptor.Fc 1 μg/mL)	interaction with DC-SIGNR.Fc in dot-binding assay (DC-SIGNR.Fc)	Percentage of binding of DC-SIGN Fc fusion to GLPS-F3 relative to binding in absence of sugar competitor (DC-SIGN) [%]	Molecule	inhibition of binding of Fc.DC-SIGN to GLPS-F3 (DC-SIGN) [%]	inhibition of binding of DVLR1/CLEC5A to DV (DVLR1/CLEC5A)
inhibited	can bind	only Dectin-1.Fc can bind	81 ± 1.4	β-1,3-glucan [b-glucan]	–	–
–	–	–	8 ± 1.8	C[C@H](O)[C@@H](O)[C@@H](O)[C@H](O)C=O [Fuc, L-fucose]	92	significantly reduced

Molecule	inhibition of the interaction between Dectin-1.Fc and F3 (Dectin-1.Fc; competitor 0.1 μg-1000 μg, or EDTA 10 mM in TBST)	interaction with Dectin-1.Fc in dot-binding assay (Dectin-1.Fc; polysaccharide immobilized on PVDF membrane, receptor.Fc 1 μg/mL)	interaction with DC-SIGNR.Fc in dot-binding assay (DC-SIGNR.Fc)	Percentage of binding of DC-SIGN Fc fusion to GLPS-F3 relative to binding in absence of sugar competitor (DC-SIGN) [%]	inhibition of binding of Fc.DC-SIGN to GLPS-F3 (DC-SIGN) [%]	inhibition of binding of DVLR1/CLEC5A to DV (DVLR1/CLEC5A)
mannan	–	–	–	2 ± 0.5	98	to a lesser extent
